Test results taken from patent US20010005752A1, “Fluorescent dyes (AIDA) for solid phase and solution phase screening” (priority 1998, published 2001).

Tests used:
[1] = UV-Vis absorption spectroscopy; format: physicochemical; details: acetonitrile/2% DMSO
Description: UV-Vis absorption spectroscopy is performed on a Cary 1E spectrophotometer. […]
[…] […] From each stock solution, 5 dilutions with concentrations of 2.5 μm, 10 μM, 17 μM, 25 μm and 35 μM are made. UV-spectra of each dilution are recorded from 200 to 400 nm, using a quarz cuvette with a pathlength of 1 cm. […] A linear fit is carried out for each series of measurements. The extinction coefficient ε at 337 nm is given by the slope of the linear regression.

[2] = Steady-state fluorescence spectroscopy (excitation and emission spectra); format: physicochemical; details: for Emission range in parenthesis / Emission λmax / Excitation range in parenthesis / Excitation λmax: acetonitrile/2% DMSO
Description: Steady-state fluorescence measurements are performed on a SLM 8000C spectro-fluorometer equipped with JD490 photomultipliers and a 450 W Xenon Arclamp (SLM Instruments, Urbana, Ill.).
[…] Spectral bandwidths are set to 1 and 4 nm for excitation and emission, respectively. Spectra are recorded in single photon counting mode. Changes in lamp intensity are corrected with a quantum counter in the reference channel, measured in slow mode. Gain is set to x 100 with a high voltage (HV) of 640 V. Integration time is 2 seconds. For excitation spectra measurements, the emission wavelength is set to 397 nm and the sample is excited from 200 to 400 nm. For recording emission spectra, the sample is excited at 342 nm and the emission is recorded from 350 to 540 nm. The data are averaged over two scans.

Row | SMILES | Absorption λmax [1] [nm] | ε (at absorption λmax) [1] [M⁻¹ cm⁻¹] | Emission range in parenthesis [2] | Emission λmax [2] [nm] | Excitation range in parenthesis [2] | Excitation λmax [2] [nm] | fluorescence emission (relative to 1,3-diaryl-1H-indazoles) [2]
1 | O=C(O)c1ccc(-n2nc(-c3ccccc3)c3ccccc32)cc1 [4a] | 328 | 22569 | 360-450 nm | 396 | 300-340 nm | 328 | 
2 | O=C(O)c1ccc(-c2nn(-c3ccc([N+](=O)[O-])cc3)c3ccccc23)cc1 [4i] | 361 | 31261 | 470-670 nm | 551 | 320-420 nm | 374 | 
3 | O=C(O)c1ccc(-c2nn(-c3ccc(C(=O)O)cc3)c3ccccc23)cc1 [4b, 1,3-Bis-(4-carboxyphenyl)-1H-indazole] | 334 | 29152 | 360-500 nm | 396 | 300-360 nm | 335 | 
4 | COC(=O)c1ccc(-c2nn(-c3ccc(C(=O)O)cc3)c3ccccc23)cc1 [4d] | 334 | 33114 | 360-500 nm | 396 | 300-360 nm | 336 | 
5 | COc1ccc(-c2nn(-c3ccc(C(=O)O)cc3)c3cc(OC)ccc23)cc1 [4h] | 327 | 27650 | 370-600 nm | 439 | 300-350 nm | 330 | 
6 | O=C(O)c1ccc(-n2nc(-c3ccccc3)c3ccc4ccccc4c32)cc1 [4-(3-phenyl-benzo[g]indazol-1-yl)-benzoic acid, reference compound] |  |  |  |  |  |  | dramatically reduced
7 | O=C(O)c1ccc(-n2nc(-c3ccc(Cl)cc3)c3ccc(Cl)cc32)cc1 [4g] | 328 | 29157 | 350-450 nm | 364 | 310-350 nm | 328 | 

Results, then the compound that gave them:

Row | Absorption λmax [1] [nm] | ε (at absorption λmax) [1] [M⁻¹ cm⁻¹] | Emission range in parenthesis [2] | Emission λmax [2] [nm] | Excitation range in parenthesis [2] | Excitation λmax [2] [nm] | fluorescence emission (relative to 1,3-diaryl-1H-indazoles) [2] | SMILES
8 | 326 | 17252 | 450-620 nm | 527 | 310-360 nm | 331 |  | NC(=O)c1ccc(-c2nn(-c3ccc(C(=O)O)cc3)c3ccc([N+](=O)[O-])cc23)cc1 [4l, 4-[3-(4-carbamoyl-phenyl)-5-nitro-1H-indazol-1-yl]-benzoic Acid]
9 | 354 | 25482 | 470-670 nm | 554 | 320-400 nm | 368 |  | O=C(O)c1ccc(-n2nc(-c3ccc([N+](=O)[O-])cc3)c3ccccc32)cc1 [4f]
10 | 328 | 22622 | 450-620 nm | 524 | 320-360 nm | 331 |  | O=C(O)c1ccc(-c2nn(-c3ccc(C(=O)O)cc3)c3ccc([N+](=O)[O-])cc23)cc1 [4k, 4-[3-(4-carboxy-phenyl)-5-nitro-1H-indazol-1-yl]-benzoic Acid]
11 | 332 | 30665 | 360-500 nm | 393 | 300-360 nm | 334 |  | NC(=O)c1ccc(-c2nn(-c3ccc(C(=O)O)cc3)c3ccccc23)cc1 [4c, 4-[3-(4-carbamoyl-phenyl)-1H-indazol-1-yl]-benzoic acid]
12 | 358 | 24967 | 490-700 nm | 565 | 340-420 nm | 370 |  | Cc1ccc2c(-c3ccc([N+](=O)[O-])cc3)nn(-c3ccc(C(=O)O)cc3)c2c1 [4j]
